For twelve molecules, IC50 results are on record in patent US8569344B2, “N-piperidinyl acetamide derivatives as calcium channel blockers” (Zalicus Pharmaceuticals Ltd., priority 2008, dated 2013).

Structures are written as SMILES. Where only a bound is given, the exact number is not on record here.

Assay [1] has as its target T1, human α1G T-type channels (Homo sapiens, UniProt O43497).
T1 construct: expressed in transfected cells; host or cells: HEK 293
Briefly: T-type calcium channel block, whole cell patch clamp in HEK cells (α1G). The assay is classed as cell-based. The following applies: HEK cells, patch clamp, mainly non-inactivated protocol; values above 10 μM shown as 10 μM, below 0.30 μM shown as 0.30 μM; read-out: T-type Calcium Channel Block α1G IC50. (In patch-clamp work, channel activity is measured electrically.)

Assay [2] deals with T2, human α1H T-type channels (Homo sapiens, UniProt O95180).
T2 construct: expressed in transfected cells; host or cells: HEK 293
Briefly: T-type calcium channel block, whole cell patch clamp in HEK cells (α1H). The following applies: HEK cells, patch clamp, mainly non-inactivated protocol; values above 10 μM shown as 10 μM; read-out: T-type Calcium Channel Block α1H IC50. The assay is classed as cell-based.

T2 sequence (O95180 whole entry): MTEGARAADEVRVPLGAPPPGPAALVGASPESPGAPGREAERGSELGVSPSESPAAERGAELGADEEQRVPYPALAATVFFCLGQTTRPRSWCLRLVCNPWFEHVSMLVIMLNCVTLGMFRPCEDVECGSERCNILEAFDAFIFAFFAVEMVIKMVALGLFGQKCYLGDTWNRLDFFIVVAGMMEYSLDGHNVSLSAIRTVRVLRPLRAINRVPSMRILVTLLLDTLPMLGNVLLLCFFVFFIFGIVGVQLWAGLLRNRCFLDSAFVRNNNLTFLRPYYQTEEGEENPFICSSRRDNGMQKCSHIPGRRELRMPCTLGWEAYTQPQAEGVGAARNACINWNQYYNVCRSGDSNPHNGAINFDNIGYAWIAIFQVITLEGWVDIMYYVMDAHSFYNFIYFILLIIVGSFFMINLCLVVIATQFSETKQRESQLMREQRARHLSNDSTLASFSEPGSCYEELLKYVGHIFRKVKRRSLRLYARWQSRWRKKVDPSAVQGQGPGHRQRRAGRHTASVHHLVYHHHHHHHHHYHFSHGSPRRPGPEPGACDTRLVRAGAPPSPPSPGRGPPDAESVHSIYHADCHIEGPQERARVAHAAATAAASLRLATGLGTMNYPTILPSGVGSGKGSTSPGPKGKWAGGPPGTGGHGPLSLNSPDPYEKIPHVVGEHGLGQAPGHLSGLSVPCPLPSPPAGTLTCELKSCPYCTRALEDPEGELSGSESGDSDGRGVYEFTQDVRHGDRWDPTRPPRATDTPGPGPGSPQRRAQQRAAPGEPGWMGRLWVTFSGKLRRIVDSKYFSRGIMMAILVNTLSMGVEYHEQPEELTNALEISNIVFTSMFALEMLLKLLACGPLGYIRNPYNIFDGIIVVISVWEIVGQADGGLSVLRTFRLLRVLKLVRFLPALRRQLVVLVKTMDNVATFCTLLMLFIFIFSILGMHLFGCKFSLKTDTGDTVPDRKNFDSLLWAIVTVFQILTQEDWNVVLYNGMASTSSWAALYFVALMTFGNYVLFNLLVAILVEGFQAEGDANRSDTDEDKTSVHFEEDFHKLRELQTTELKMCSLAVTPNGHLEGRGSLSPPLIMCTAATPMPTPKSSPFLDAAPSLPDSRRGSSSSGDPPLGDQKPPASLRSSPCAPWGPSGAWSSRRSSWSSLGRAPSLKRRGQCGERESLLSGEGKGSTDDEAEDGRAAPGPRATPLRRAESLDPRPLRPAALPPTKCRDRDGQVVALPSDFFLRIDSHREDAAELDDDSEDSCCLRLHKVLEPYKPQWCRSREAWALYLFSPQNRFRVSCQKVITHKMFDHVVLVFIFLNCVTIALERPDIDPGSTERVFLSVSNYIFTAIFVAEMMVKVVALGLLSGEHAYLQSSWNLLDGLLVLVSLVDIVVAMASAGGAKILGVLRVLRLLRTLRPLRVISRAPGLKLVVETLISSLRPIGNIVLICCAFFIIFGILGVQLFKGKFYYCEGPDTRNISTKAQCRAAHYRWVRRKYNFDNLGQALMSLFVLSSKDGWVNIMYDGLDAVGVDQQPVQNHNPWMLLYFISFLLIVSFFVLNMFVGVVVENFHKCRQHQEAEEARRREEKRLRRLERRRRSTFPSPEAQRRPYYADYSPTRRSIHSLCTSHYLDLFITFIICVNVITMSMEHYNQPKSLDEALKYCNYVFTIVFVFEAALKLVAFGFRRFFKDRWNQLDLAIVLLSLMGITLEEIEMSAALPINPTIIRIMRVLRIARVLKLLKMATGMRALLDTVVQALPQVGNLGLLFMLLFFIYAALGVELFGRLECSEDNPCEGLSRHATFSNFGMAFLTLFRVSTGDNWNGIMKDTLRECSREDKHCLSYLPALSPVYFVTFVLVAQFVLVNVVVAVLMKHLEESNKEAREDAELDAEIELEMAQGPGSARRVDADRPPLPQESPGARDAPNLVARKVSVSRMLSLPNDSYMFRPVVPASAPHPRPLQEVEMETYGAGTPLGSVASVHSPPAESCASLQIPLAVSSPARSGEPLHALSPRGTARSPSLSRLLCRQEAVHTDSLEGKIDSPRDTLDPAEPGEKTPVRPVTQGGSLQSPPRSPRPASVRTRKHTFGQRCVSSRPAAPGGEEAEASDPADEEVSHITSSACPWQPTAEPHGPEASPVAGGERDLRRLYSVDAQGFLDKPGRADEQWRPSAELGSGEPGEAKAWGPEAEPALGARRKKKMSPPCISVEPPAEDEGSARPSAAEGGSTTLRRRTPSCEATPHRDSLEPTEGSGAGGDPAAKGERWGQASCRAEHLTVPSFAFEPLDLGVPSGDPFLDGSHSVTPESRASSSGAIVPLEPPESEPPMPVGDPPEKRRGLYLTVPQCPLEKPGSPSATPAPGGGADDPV
T1 sequence (O43497 whole entry): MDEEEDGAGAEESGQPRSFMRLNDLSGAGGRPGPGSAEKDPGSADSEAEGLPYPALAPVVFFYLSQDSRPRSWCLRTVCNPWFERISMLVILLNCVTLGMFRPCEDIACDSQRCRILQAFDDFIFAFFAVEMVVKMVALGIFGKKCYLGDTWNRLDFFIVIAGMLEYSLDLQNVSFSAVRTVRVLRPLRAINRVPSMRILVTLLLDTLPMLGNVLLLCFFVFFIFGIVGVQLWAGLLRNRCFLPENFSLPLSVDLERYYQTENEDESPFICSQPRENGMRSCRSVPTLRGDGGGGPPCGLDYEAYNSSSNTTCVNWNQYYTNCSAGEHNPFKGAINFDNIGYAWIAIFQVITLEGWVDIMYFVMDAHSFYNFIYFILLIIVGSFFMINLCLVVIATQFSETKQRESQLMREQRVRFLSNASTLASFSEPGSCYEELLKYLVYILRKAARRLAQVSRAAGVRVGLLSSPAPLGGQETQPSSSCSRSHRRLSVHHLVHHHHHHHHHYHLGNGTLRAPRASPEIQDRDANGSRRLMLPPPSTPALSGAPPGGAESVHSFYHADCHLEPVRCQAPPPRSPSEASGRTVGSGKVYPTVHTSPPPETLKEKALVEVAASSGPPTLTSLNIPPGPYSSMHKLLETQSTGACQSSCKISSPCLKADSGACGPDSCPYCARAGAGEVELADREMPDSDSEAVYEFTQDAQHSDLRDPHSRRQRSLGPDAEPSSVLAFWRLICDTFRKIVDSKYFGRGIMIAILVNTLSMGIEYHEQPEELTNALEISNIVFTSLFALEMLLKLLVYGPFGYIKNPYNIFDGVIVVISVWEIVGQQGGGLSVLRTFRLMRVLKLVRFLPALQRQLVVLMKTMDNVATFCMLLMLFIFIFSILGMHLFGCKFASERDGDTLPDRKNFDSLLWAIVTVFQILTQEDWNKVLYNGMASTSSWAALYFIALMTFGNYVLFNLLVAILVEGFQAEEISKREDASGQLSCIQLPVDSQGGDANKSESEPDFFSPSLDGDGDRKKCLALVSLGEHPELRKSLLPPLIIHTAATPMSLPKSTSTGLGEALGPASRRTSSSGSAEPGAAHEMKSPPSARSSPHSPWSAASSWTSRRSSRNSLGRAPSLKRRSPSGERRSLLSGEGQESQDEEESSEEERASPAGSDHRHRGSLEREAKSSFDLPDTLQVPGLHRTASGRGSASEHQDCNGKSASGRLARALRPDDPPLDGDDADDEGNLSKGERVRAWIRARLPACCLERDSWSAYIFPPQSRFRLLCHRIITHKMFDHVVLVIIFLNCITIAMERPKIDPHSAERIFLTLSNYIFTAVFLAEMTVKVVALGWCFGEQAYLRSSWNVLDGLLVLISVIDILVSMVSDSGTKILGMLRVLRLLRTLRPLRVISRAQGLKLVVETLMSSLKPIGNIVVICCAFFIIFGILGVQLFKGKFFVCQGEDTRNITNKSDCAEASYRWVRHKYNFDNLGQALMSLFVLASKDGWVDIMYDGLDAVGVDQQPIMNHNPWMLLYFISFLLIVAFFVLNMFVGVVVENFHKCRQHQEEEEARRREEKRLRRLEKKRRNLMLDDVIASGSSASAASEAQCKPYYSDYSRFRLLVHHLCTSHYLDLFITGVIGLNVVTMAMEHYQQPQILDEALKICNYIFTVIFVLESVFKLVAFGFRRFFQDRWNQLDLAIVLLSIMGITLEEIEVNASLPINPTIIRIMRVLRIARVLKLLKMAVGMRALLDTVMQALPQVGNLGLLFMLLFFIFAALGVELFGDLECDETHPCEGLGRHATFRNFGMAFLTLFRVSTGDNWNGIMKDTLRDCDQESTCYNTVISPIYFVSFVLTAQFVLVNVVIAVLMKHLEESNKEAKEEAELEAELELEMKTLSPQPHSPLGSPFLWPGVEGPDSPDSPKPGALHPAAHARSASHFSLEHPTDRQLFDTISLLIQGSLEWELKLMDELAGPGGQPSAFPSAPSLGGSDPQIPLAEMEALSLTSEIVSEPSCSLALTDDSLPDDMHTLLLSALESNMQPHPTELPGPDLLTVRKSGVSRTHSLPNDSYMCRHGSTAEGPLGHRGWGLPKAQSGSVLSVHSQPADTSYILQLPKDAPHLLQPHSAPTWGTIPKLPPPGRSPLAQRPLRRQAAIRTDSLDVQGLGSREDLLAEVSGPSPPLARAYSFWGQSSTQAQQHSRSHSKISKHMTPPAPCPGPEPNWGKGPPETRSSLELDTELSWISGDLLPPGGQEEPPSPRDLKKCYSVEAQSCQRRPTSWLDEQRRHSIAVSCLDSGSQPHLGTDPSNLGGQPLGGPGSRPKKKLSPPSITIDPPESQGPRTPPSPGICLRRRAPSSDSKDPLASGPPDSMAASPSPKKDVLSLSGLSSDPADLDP

A word on the IC50: it is the concentration needed to halve the response being measured. Take `O=C(NCC1CCN(C(=O)[C@@H]2CCCCN2)CC1)c1cc(C(F)(F)F)cc(C(F)(F)F)c1` [Compound 88, (S)-N-((1-(piperidine-2-carbonyl)piperidin-4-yl)methyl)-3,5-bis(trifluoromethyl)benzamide]: the IC50 in assay [1] and in assay [2] was > 10000 nM each time.

Consider `O=C(NCC1CCN(C(=O)CNC2CCCCC2)CC1)c1cc(C(F)(F)F)cc(C(F)(F)F)c1` [Compound 249, N-((1-(2-(cyclohexylamino)acetyl)piperidin-4-yl)methyl)-3,5-bis(trifluoromethyl)benzamide], for which the figures for the IC50 in assay [1] and in assay [2] were < 300 nM and 580 nM, respectively.

For the molecule `CC1CCC(C(=O)N(C)CCN2CCC(CNC(=O)c3cc(F)cc(C(F)(F)F)c3)CC2)CC1` (stereo not drawn) [Compound 519, N-((1-(2-(N,4-dimethylcyclohexanecarboxamido)ethyl)piperidin-4-yl)methyl)-3-fluoro-5-(trifluoromethyl)benzamide], the IC50 in assay [1] was < 300 nM; in assay [2] it was 240 nM.

In the case of `COc1cc(F)cc(C(=O)NCC2CCN(CC(=O)NC3(C4CCOCC4)CC3)CC2)c1` [Compound 562, 3-fluoro-5-methoxy-N-((1-(2-oxo-2-(1-(tetrahydro-2H-pyran-4-yl)cyclopropylamino)ethyl)piperidin-4-yl)methyl)benzamide], the IC50 in assay [1] amounted to 400 nM; in assay [2], 660 nM.

Regarding `CCOc1cc(OCC)cc(C(=O)NCC2CCN(CC(=O)NC(C)(C)C)CC2)c1` [Compound 377, N-((1-(2-(tert-butylamino)-2-oxoethyl)piperidin-4-yl)methyl)-3,5-diethoxybenzamide], the values for the 50% inhibitory concentration (IC50) in assay [1] and in assay [2] were < 300 nM and 450 nM, respectively.

As to `Cc1cc(F)cc(C(=O)NCC2CCN(CC(=O)N(C)C(C)(C)C)CC2)c1` [Compound 540, N-((1-(2-(tert-butyl(methyl)amino)-2-oxoethyl)piperidin-4-yl)methyl)-3-fluoro-5-methylbenzamide], the IC50 in assay [1] was 1400 nM; in assay [2] it was 550 nM.

On to `O=C(NCC1CCN(CCNS(=O)(=O)C(F)(F)F)CC1)c1cc(F)cc(Cl)c1` [Compound 329, 3-chloro-5-fluoro-N-((1-(2-(trifluoromethylsulfonamido)ethyl)piperidin-4-yl)methyl)benzamide], for which the results for the IC50 in assay [1] and in assay [2] were 3240 nM and 4050 nM, respectively.

For the molecule `O=C(NCC1CCN(CCNS(=O)(=O)C2CC2)CC1)c1cc(Cl)sc1Cl` [Compound 333, 2,5-dichloro-N-((1-(2-(cyclopropanesulfonamido)ethyl)piperidin-4-yl)methyl)thiophene-3-carboxamide], the IC50 was found to be 800 nM in assay [1] and 2420 nM in assay [2].

Take `CC(C)S(=O)(=O)NC(CN1CCC(CC(=O)NC(c2cccc(F)c2)c2cccc(F)c2)CC1)C(C)(C)C` (stereo not drawn) [Compound 222, N-(bis(3-fluorophenyl)methyl)-2-(1-(3,3-dimethyl-2-(1-methylethylsulfonamido)butyl)piperidin-4-yl)acetamide]: the values for the IC50 in assay [1] and in assay [2] were 2030 nM and > 10000 nM, respectively.

Consider `C[C@@H]1CCCCN1CC(=O)N1CCC(CNC(=O)c2cc(F)cc(C(F)(F)F)c2)CC1` [Compound 279, (R)-3-fluoro-N-((1-(2-(2-methyl-piperidin-1-yl)acetyl)piperidin-4-yl)methyl)-5-(trifluoromethyl)benzamide], for which the IC50 in assay [1] and in assay [2] was > 10000 nM each time.

For `CC(C)(C)C(=O)NCCN1CCC(CNC(=O)c2cc(Cl)cc(Cl)c2)CC1` [Compound 298, 3,5-dichloro-N-((1-(2-pivalamidoethyl)piperidin-4-yl)methyl)benzamide], the IC50 in assay [1] was < 300 nM; in assay [2] it was 280 nM.

In the case of `CC1(NC(=O)CN2CCC(CNC(=O)c3cccc(Br)c3)CC2)CCC1` [Compound 480, 3-bromo-N-((1-(2-(1-methylcyclobutylamino)-2-oxoethyl)piperidin-4-yl)methyl) benzamide], the IC50 in assay [1] was < 300 nM; in assay [2], 180 nM.
